Measurements reported in PMC3390344, “Antibacterial Activity and Mechanism of a Scorpion Venom Peptide Derivative In Vitro and In Vivo” (PLoS ONE, 2012).
Ends that are not written are not given here.

Key:
[1] = tested on: penicillin-sensitive S. epidermidis (PSSE) P1111; test: microbe, parasite or virus in culture; type: cell-based; conditions: P1111, penicillin sensitive (PSSE) clinical isolate; repeated at least three times
Description: (§1) Clinical isolates were obtained from the 302nd military hospital of Beijing, China, including penicillin-resistant S. aureus (PRSA) P1383, penicillin-resistant S. epidermidis (PRSE) P1389, methicillin-resistant S. aureus (MRSA) P1381, P1386 and P1374, methicillin-resistant coagulase-negative Staphylococcus (MRCNS) P1369, and penicillin-sensitive S. epidermidis (PSSE) P1111.
(§2) The MIC was determined via a microdilution assay in 96-well microtiter plates according to the broth microdilution guideline of Clinical and Laboratory Standards Institute (CLSI).

[2] = tested on: penicillin-resistant S. aureus (PRSA) P1383; test: microbe, parasite or virus in culture; type: cell-based; conditions: P1383, penicillin resistant (PRSA) clinical isolate; repeated at least three times
Description: as §1, §2

[3] = tested on: penicillin-resistant S. epidermidis (PRSE) P1389; test: microbe, parasite or virus in culture; type: cell-based; conditions: P1389, penicillin resistant (PRSE) clinical isolate; repeated at least three times
Description: as §1, §2

[4] = tested on: methicillin-resistant S. aureus (MRSA) P1381; test: microbe, parasite or virus in culture; type: cell-based; conditions: P1381, methicillin resistant (MRSA) clinical isolate; repeated at least three times
Description: as §1, §2

[5] = tested on: methicillin-resistant S. aureus (MRSA) P1374; test: microbe, parasite or virus in culture; type: cell-based; conditions: P1374, methicillin resistant (MRSA) clinical isolate; repeated at least three times
Description: as §1, §2

[6] = tested on: methicillin-resistant S. aureus (MRSA) P1386; test: microbe, parasite or virus in culture; type: cell-based; conditions: P1386, methicillin resistant (MRSA) clinical isolate; repeated at least three times
Description: as §1, §2

human red blood cells = test: Hemolytic activity; type: cell-based; conditions: 37 °C, 1 h, absorbance at 570 nm, positive control 0.1% Triton X-100, method of Käber modified by Achmarine
Description: Figure 1 Screening, antimicrobial and hemolytic activities of Kn2-7 in vitro. (A) Multiple alignments of Kn2-7 and its seven derivatives. (B) Predicted secondary structure of Kn2-7 and its seven derivatives. (C) Antibacterial activity screening of Kn2-7 and its seven derivative peptides. (D) Hemolytic activity of Kn2-7. The hemolytic activities of the Kn2-7 and BmKn2 peptides were estimated by monitoring the increase in the absorbance at 570 nm after incubating human red blood cells with different peptide concentrations at 37 °C for 1 h. The positive control was 0.1% Triton X-100, and 0.85% saline was used as a blank. […] It is read as >100 for BmKn2, Kn2-3 and Kn2-4, and as 100 for Kn2-1, Kn2-2, Kn2-5 and Kn2-6.
The hemolytic activities of Kn2-7 and BmKn2 peptides were tested against human red blood cells. HC50 values were obtained according to the method of Käber, modified by Achmarine. Saline solution at a concentration of 0.85% was used as the negative control, and 0.1% Triton X-100 was used as the positive control.

E. coli AB94012 [7] = type: cell-based; conditions: E. coli AB94012, Gram-negative; broth microdilution, 96-well
Description: These peptides were used to determine the inhibitory activities against the representative Gram-positive bacteria S. aureus AB94004 and the representative Gram-negative bacteria E. coli AB94012.
(§3) S. aureus AB94004, S. aureus ATCC 25923, E. coli AB94012, E. coli ATCC 25922, Pseudomonas aeruginosa AB93066, Bacillus thuringiensis AB92037, Bacillus subtilis AB91021, and Micrococcus luteus AB93113 were purchased from the China Center of Type Culture Collection (CCTCC).
as §2

S. aureus ATCC 25923 = test: MIC, broth microdilution (CLSI); type: cell-based; conditions: S. aureus ATCC 25923, Gram-positive, 96-well
Description: as §3, §2

E. coli ATCC 25922 = test: MIC, broth microdilution (CLSI); type: cell-based; conditions: E. coli ATCC 25922, Gram-negative, 96-well
Description: as §3, §2

HIV-1 = conditions: by direct interaction with viral particle; cited from earlier work
Excerpt: In a previous study by our group, we characterized an antimicrobial peptide, BmKn2, derived from the venom of the scorpion Mesobuthus martensii Karsch. In the present study, a derivative of BmKn2, was designed to increase the antibacterial activity and reduce the hemolytic activity. […] In addit ...

E. coli AB94012 [8] = test: LTA and LPS competition binding assay (MIC); type: cell-based; conditions: controls of the competition assay (Figure 7C): untreated peptide, or LTA / LPS alone
Description: To confirm the results of the BLI titrations, 250 µg/mL of Kn2-7 or BmKn2 was mixed with an equal volume of 1 mg/mL LTA or LPS. Then, the MICs of Kn2-7 or BmKn2 mixed with LTA against S. aureus and E. coli were measured. […] The MICs of Kn2-7 and BmKn2 treated with LTA against S. aureus were 25 and 12.5 µg/mL, respectively.
A total of 250 µg/mL of each peptide solution was mixed with an equal volume of 1 mg/mL of the LTA or LPS solution. Then, the MICs of BmKn2 and Kn2-7 treated with LTA or LPS against S. aureus AB94004 and E. coli AB94012 were measured.

E. coli AB94012 [9] = test: Transmission electron microscopy; type: cell-based; conditions: E. coli AB94012, 1×MIC, treated for 2 min, semi-thin sections
Description: (§4) Figure 6 Transmission electron microscopy of S. aureus and E. coli treated with Kn2-7. (A) Transmission electron microscopy was performed with Kn2-7-treated S. aureus. (A1), (A2) and (A3) were negative controls. (A4), (A5) and (A6) show S. aureus treated with Kn2-7 for 2 min. (A7), (A8) and (A9) show S. aureus treated with BmKn2 for 2 min. (B) Transmission electron microscopy was performed with Kn2-7-treated E. coli. (B1), (B2) and (B3) were the negative controls. (B4), (B5) and (B6) show E. coli treated with Kn2-7 for 2 min. (B7), (B8) and (B9) show E. coli treated with BmKn2 for 2 min.
(§5) Overnight-cultured S. aureus AB94004 and E. coli AB94012 were transferred to LB medium and cultured to the exponential phase. A 200 µl aliquot of the peptide solution was added to 800 µl of the bacterial suspensions at the final concentration of 1×MIC. The samples were cut into semi-thin sections. Microscopy was performed using a HITACHI H-8100 Transmission Electron Microscope.

S. aureus AB94004 = test: Transmission electron microscopy; type: cell-based; conditions: 1×MIC, treated for 2 min, semi-thin sections
Description: as §4, §5

Which MIC [1] does the source give for FIGAIARLLSKIF-NH2 [BmKn2] here?
Its MIC is 6.25 µg/mL.

And the MIC [2]?
The MIC was 12.5 µg/mL.

What about the MIC [3] of the same substance?
Its MIC is 12.5 µg/mL.

And the MIC [4]?
The MIC was 12.5 µg/mL.

What about the MIC [5] of the same substance?
Its MIC is 12.5 µg/mL.

And the MIC [6]?
The MIC was 12.5 µg/mL.

What about the “HC50 (hemolytic activity)” value (human red blood cells) of the same substance?
The value was 17.13 µg/mL.

What about the MIC (E. coli AB94012 [7]) of the same substance?
Its MIC is greater than 100 µg/mL.

What about the MIC (S. aureus ATCC 25923) of the same substance?
The MIC was 6.25 µg/mL.

And the MIC (E. coli ATCC 25922)?
The MIC was greater than 100 µg/mL.

What does the source list for FIKRIARLLRKIF [Kn2-7]?
Inhibition of HIV-1 (HIV-1): could inhibit HIV-1; MIC E.coli, substance alone (E. coli AB94012 [8]): 6.25 µg/mL; Structural changes of cell wall and membrane (TEM) (E. coli AB94012 [9]): formed microspheres that surrounded the bacteria; Structural changes of cell wall and membrane (TEM) (S. aureus AB94004): disrupted immediately
